Among the data in patent US6521629B2, “Quinoline and quinazoline compounds useful in therapy” (Pfizer Inc., priority 1997, dated 2003) are pA2 value values, retold here.

This test has as its system human prostate. The test is described as follows: Contractile responses of human prostate. It counts as cell-based. Conditions: isolated human prostatic tissue strips; antagonism of (−)-noradrenaline contractions; single antagonist concentration incubated 2 hours. On the procedure:
Contractile Responses of Human Prostate
Prostatic tissue was cut into longitudinal strips (approximately 3×2×10 mm) and suspended in organ baths under a resting tension of 1 g in Krebs Ringer bicarbonate of the following composition (mM): NaCl (119), KCl (4.7), CaCl2 (2.5), KH2PO4 (1.2), MgSO4 (1.2), NaHCO3 (25), glucose (11), and gassed with 95% O2/5% CO2. The solution also contained 10 […]. Tissues were exposed to a sensitising dose of (−)-noradrenaline ([…]) and washed over a 45 minute period. Isometric contractions were obtained in response to cumulative additions of (−)-noradrenaline to obtain control curves in all tissues. A further curve was then generated in the presence or absence of antagonist (incubated for 2 hours). Antagonist affinity estimates (pA2) were determined using a single concentration of competing antagonist, pA2=−log [A]/(DR−1) where the dose ratio (DR), relative to corresponding controls, was produced by a single concentration of antagonist [A], assuming competitive antagonism and Schild regression close to unity.

In the case of `COc1cc2nc(N3CCCN(C(=O)N4CCOCC4)CC3)cc(N)c2c(-c2ncco2)c1OC` [Example 28, 4-Amino-6,7-dimethoxy-2-[4-(4-morpholinecarbonyl)-1,4-diazepan-1-yl]-5-(oxazol-2-yl)quinoline], the pA2 value is 9.2.
